Source: paper PMC12644462, “A novel radiosensitizer α-sulfoquinovosyl-acylpropanediol (SQAP) inhibits DNA repair pathways and sensitize cells to cancer chemotherapeutic agents” (Scientific Reports, 2025)

What was measured:
Topo II alpha = Topo II alpha (Homo sapiens, UniProt P11388); experiment: Topoisomerase II alpha assay; format: biochemical; settings: kinetochore DNA, 37 °C, 30 min
Protocol: (§1) For topoisomerase (Topo) I assay, a mixture of 125 ng of supercoiled pHOT1 DNA, 1U of Topo I enzyme, and various concentrations of SQAP in 1 mM Tris-HCl (pH7.9), 0.1 mM EDTA, 0.015 M NaCl, 0.01% BSA, 0.01 mM Spermidine and 0.5% glycerol was incubated at 37 °C for 30 min. For Topo II alpha assay, a mixture of 10 µL containing of 50 ng of […] DNA in 0.05 M Tris-HCl (pH8), 1U of Topo II alpha, various concentrations of SQAP in 0.15 M NaCl, 10 mM MgCl2, 0.5mM DTT, 30 µg/mL of BSA, 2 mM ATP was incubated at 37 °C for 30 min. After the reaction was terminated, electrophoresis was conducted at 50 V for 3 h, followed by ethidium bromide staining. DNA images were obtained by a Bio-Rad imager (Bio-Rad, Hercules, CA, USA) and quantified with Image Lab software (Bio-Rad).

[1] = test system: poly (ADP-ribose) polymerase (PARP); design: method as in PMID 37973295; settings: cited from earlier work
[2] = in vivo ref 34; cited from earlier work
Topo I = molecular target: T1, Topo I (Homo sapiens, UniProt P11387); experiment: Topoisomerase I assay; format: biochemical; settings: supercoiled pHOT1 DNA, 37 °C, 30 min
T1 sequence (P11387 1-765): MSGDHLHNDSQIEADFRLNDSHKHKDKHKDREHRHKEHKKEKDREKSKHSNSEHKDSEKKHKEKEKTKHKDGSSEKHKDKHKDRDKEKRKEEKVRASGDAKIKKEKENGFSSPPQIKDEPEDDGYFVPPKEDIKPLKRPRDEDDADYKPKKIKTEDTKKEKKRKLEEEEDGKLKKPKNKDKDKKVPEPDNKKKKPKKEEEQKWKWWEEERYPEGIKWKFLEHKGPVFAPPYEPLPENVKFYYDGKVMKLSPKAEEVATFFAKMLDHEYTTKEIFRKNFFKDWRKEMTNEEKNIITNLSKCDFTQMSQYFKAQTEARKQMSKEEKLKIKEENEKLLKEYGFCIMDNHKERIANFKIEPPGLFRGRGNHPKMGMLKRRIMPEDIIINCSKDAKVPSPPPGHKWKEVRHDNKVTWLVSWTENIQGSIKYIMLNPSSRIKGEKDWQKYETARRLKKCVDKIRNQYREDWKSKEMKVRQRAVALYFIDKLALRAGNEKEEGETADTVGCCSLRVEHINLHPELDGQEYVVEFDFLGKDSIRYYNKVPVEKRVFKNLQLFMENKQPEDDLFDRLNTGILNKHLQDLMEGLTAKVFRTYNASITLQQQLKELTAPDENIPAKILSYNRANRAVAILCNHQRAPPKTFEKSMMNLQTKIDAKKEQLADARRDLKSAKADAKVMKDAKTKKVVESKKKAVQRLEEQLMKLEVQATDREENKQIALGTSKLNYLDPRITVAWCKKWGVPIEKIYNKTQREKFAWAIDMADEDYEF
Protocol: as §1

Chain of Topo II alpha (P11388 whole entry): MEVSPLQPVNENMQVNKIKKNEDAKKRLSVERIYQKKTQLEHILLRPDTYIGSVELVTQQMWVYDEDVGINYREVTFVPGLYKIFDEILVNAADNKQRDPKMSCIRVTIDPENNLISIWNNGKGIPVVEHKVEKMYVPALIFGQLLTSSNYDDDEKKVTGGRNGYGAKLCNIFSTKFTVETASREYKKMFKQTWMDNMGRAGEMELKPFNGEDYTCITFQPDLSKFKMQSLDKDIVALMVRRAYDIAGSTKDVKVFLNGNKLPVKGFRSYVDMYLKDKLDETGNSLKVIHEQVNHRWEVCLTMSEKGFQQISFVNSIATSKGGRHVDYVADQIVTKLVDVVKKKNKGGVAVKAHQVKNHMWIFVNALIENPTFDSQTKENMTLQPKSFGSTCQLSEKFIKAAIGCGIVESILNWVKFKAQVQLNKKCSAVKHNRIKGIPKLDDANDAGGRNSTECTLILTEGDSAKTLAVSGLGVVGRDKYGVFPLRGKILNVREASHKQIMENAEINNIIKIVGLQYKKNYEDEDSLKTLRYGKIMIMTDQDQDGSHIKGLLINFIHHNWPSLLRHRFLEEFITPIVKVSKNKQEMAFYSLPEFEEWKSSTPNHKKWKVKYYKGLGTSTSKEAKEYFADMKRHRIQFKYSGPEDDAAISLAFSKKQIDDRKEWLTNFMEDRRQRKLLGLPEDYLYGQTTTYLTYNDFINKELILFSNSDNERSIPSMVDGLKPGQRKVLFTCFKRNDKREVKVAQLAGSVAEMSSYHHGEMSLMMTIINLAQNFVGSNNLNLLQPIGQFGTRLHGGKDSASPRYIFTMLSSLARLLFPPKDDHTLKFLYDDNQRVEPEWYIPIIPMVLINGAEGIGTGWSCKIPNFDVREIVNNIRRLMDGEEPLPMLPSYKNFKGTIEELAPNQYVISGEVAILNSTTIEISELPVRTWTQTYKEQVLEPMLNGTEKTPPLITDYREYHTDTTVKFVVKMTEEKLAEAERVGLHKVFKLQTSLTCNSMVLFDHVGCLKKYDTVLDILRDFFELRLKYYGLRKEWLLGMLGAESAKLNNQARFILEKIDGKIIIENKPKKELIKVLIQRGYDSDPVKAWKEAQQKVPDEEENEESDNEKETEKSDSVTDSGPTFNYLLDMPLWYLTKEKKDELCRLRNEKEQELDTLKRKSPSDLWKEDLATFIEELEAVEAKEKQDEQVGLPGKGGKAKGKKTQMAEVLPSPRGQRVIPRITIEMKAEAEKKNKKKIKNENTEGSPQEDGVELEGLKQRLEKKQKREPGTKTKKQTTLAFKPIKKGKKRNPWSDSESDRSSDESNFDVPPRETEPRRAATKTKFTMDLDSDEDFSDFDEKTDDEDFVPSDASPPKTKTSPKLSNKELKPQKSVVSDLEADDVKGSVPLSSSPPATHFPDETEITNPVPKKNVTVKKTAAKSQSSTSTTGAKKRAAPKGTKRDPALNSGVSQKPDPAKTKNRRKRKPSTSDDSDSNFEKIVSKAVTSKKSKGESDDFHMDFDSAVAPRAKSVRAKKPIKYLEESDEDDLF

In the case of `CCCCCCCCCCCCCCCCCC(=O)OCCCO[C@H]1O[C@H](CS(=O)(=O)O)[C@@H](O)[C@H](O)[C@H]1O` [SQAP, Alpha-sulfoquinovosylacyl-1,3-propanediol], the IC50 (Topo II alpha) is given as 9 µM, the PARP inhibition [1] is given as “inhibitory effect” and the “clearance from normal tissues and persistence in tumors” value [2] is given as “rapidly cleared from normal tissues but persists in tumors for several hours”. It also gave an IC50 (Topo I) of 25 µM.
